Measurements taken from patent US5512562A, “Tricyclic 2,3,4,5-tetrahydro-1H-3-benzapines” (Novo Nordisk A/S, priority 1993, dated 1996).
pIC50: −log10 of the molar value.

Biological target: T1, dopamine D1 receptor (Rattus norvegicus, UniProt P18901)
T1 construct: from tissue; host or cells: rat striatum homogenate
Assay: binding to dopamine D1 receptor in homogenates from rat striatum
Protocol: The compounds of the invention are useful because of their pharmacological activity. In particular, the compounds of the invention are active in assays predictive for antipsychotic effect. Thus the compounds of formula I were tested for their binding to dopamine D1 receptor in homogenates from rat striatum using the method described (Life Science vol. 37, p. 1971 (1985) P. Andersen et al.) and the result appears from Table I. IC50 is the affinity of tested compounds for the dopamine D1 receptor.

T1 sequence (P18901 whole entry): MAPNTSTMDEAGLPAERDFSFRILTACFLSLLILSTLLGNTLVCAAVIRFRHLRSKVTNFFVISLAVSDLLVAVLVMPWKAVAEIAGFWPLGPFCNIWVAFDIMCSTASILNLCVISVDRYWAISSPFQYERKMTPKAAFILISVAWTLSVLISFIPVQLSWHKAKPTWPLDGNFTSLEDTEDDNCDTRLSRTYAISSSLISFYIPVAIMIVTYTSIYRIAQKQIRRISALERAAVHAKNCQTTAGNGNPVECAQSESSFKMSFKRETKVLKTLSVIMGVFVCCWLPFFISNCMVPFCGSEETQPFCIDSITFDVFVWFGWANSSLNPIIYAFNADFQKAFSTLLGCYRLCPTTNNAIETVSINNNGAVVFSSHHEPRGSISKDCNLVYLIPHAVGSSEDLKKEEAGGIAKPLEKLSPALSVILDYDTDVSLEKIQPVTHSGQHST

- pIC50: 7.92
SMILES: CN1CCc2c(ccc3ccoc23)C(c2cccc3ccoc23)C1 (racemic) [Example 1, 6-(Benzofuran-7-yl)-8-methyl-7,8,9,10-tetrahydro-6H-furo 2,3-g! 3!benzazepine]
